Measured values: US9783575B2, “Methyl degron peptide and methods of controlling protein lifespan” (Seoul National University (SNU) R&D Foundation, priority 2012, dated 2017)

Key:
EZH2 [1] = target: T1, EZH2 (Homo sapiens, UniProt Q15910); experiment: In vitro methyltransferase (HMTase) assay with mass spectrometry; assay type: biochemical; conditions: 100 μM synthetic peptide, GST-EZH2, LC-MS (FIG. 4)
T1 construct: GST
Procedure: Small quantities (100 μM) of synthetic peptides (RORα WT) were used as substrates in the HMTase assay with EZH2 enzyme; the reaction was stopped by 10% TCA precipitation for 10 min at 4° C. After removing the precipitates by centrifugation, the supernatants were retrieved and methylated peptides in the supernatants were analyzed by LC-MS. The eluted peptides were separated on a Luna column (C18 PepMap 100, 150×1 mm 5 micron) with a linear gradient (A: 100% H2O, 0.1% formic acid, B: 100% ACN, 0.1% formic acid) at a flow rate of […]. Typically, 2 μL of sample was injected. Mass spectrometry was performed on a linear ion trap mass spectrometer (LCQ DECA XP, Thermo Finningan) coupled to a nano-LC system (NANOSPACE SI-2, Shiseido). The MS method consisted of a cycle combining one full MS scan (Mass range: 160-2000 m/z).
The association of EZH2 with RORα at endogenous levels was confirmed by co-immunoprecipitation analysis (FIG. 3). To assess whether RORα is methylated by EZH2 and to determine the methylation status of RORα, peptides bearing amino acids 31-40 of RORα (LNQESARKSE) were in vitro methylated by EZH2 and analyzed by mass spectrometry. […]

MCF7 breast cancer cells = experiment: Cell transformation assay (anchorage-independent growth in soft agar); assay type: cell-based; design: dose or concentration left out as unconfirmed; conditions: 3 weeks (FIG. 60)
Procedure: Representative images are shown for each group. Immunoblot analysis was performed to detect each protein level. […]

EZH2 [2] = experiment: Immunoblot of EZH2 and RORα protein levels with DZNep; assay type: cell-based; conditions: MCF7 cells, DZNep 1 μM, 24 hr, immunoblot (FIG. 19)
Description: (§1) In order to determine whether the ubiquitin-proteasome pathway is responsible for RORα degradation and to further examine whether the introduction of EZH2 augments RORα ubiquitination by allowing increased RORα methylation, we performed an RORα ubiquitination assay with EZH2 in the presence of a 26S proteasome inhibitor, MG132. […] To further examine whether K38 methylation directly affects RORα ubiquitination, we performed a ubiquitination assay for RORα WT and RORα K38A in the presence of MG132. Indeed, RORα K38A mutation led to a marked reduction in RORα ubiquitination compared to RORα WT (FIG. 18). Next, we examined whether an EZH2 small molecule inhibitor, exemplified by DZNep, rescues the EZH2-mediated degradation of RORα.

RORα ubiquitination = RORα ubiquitination assay with DZNep; assay type: cell-based; conditions: HEK-293T cells, DZNep 1 μM, 24 hr (FIG. 20)
Procedure: Cells were transfected with combinations of plasmids including HisMax-ubiquitin. After incubation for 48 hrs, cells were treated with MG132, lysed in buffer A (6 M guanidinium-HCl, 0.1 M Na2HPO4/NaH2PO4, 0.01 M Tris-Cl [pH 8.0], 5 mM imidazole, and 10 mM β-mercaptoethanol), and incubated with Ni^2+-NTA beads (Qiagen) for 4 hrs at room temperature. The beads were sequentially washed with buffer A, buffer B (8 M urea, 0.1 M Na2PO4/NaH2PO4, 0.01 M Tris-Cl [pH 8.0], and 10 mM β-mercaptoethanol), and buffer C (8 M urea, 0.1 M Na2PO4/NaH2PO4, 0.01 M Tris-Cl [pH 6.3], and 10 mM β-mercaptoethanol). Bound proteins were eluted with buffer D (200 mM imidazole, 0.15 M Tris-Cl [pH 6.7], 30% glycerol, 0.72 M β-mercaptoethanol, and 5% SDS), and subject to immunoblot analysis.
as §1, with “Next, we examined whether an EZH2 small molecule inhibitor, exemplified by DZNep, rescues the EZH2-mediated degradation of RORα.” left out

T1 sequence (Q15910 whole entry, species assumed): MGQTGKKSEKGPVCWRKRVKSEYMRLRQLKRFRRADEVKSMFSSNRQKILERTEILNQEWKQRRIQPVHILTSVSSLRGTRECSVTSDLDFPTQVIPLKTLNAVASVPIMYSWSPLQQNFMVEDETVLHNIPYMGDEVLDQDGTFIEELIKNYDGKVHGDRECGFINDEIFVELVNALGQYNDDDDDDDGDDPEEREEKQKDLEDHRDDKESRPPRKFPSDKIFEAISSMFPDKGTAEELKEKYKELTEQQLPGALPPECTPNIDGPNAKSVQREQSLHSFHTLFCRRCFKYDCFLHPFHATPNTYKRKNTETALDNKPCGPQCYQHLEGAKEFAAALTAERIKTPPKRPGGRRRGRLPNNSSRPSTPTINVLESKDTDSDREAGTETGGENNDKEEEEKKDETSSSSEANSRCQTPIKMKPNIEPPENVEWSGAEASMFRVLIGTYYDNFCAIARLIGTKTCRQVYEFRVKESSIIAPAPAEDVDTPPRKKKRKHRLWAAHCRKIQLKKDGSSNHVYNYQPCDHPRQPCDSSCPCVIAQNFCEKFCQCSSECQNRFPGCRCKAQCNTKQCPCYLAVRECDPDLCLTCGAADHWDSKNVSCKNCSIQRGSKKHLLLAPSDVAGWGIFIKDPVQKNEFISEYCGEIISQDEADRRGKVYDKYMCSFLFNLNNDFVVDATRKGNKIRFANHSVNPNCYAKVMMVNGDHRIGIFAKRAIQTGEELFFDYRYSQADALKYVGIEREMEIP

LNQESARKSE [RORα wild-type (WT) peptide, peptide bearing amino acids 31-40 of RORα]
methylation of peptide by EZH2 (EZH2 [1]): addition of one methyl group to the K38 site

Nc1nccc2c1ncn2C1C=C(CO)C(O)C1O (centres unmarked) [DZNep]
cellular transformation (colony formation in soft agar) (MCF7 breast cancer cells): inhibitory effect on cellular transformation
EZH2 protein levels (EZH2 [2]): reduction of EZH2 protein levels
RORα protein levels (EZH2 [2]): increases in RORα protein levels
RORα ubiquitination levels (RORα ubiquitination): decreased
